Source: patent US8618094B2, “Fused substituted aminopyrrolidine derivative” (Daiichi Sankyo Company, Limited, priority 2007, dated 2013)
Counter-ions that a name gives are not always drawn.

First: COc1c(N2CC3(N)CCC4CC43C2)c(F)cc2c(=O)c(C(=O)O)cn([C@@H]3C[C@@H]3F)c12 (stereo partly drawn) (as salt: methanesulfonate) [Example 57, 7-[6-amino-8-azatricyclo[4.3.0.0^1,3]nonan-8-yl]-6-fluoro-1-[(1R,2S)-2-fluorocyclopropan-1-yl]-8-methoxy-4-oxo-1,4-dihydroquinoline-3-carboxylic acid methanesulfonate]
Second: Cc1c(N2CC3(N)CCC4CC43C2)c(F)cc2c(=O)c(C(=O)O)cn([C@@H]3C[C@@H]3F)c12 (single isomer, unassigned) [Example 54]
The melting point of the first is higher: 202 to 204 °C for the first, 145 to 149 °C for the second.

First: COc1c(N2C[C@@H]3CCC[C@]3(N)C2)c(F)cc2c(=O)c(C(=O)O)cn([C@@H]3C[C@@H]3F)c12 (relative stereo) [Example 12, 7-[(1R*,5S*)-1-Amino-3-azabicyclo[3.3.0]octan-3-yl]-6-fluoro-1-[(1R,2S)-2-fluorocyclopropyl]-8-methoxy-1,4-dihydro-4-oxoquinoline-3-carboxylic acid]
Second: COc1c(N2C[C@H]3COC[C@@]3(N)C2)c(F)cc2c(=O)c(C(=O)O)cn([C@@H]3C[C@@H]3F)c12 [Example 59, 7-[(3aS)-3a-Aminotetrahydrofuro[3,4-c]pyrrol-5-yl]-6-fluoro-1-[(1R,2S)-2-fluorocyclopropyl]-1,4-dihydro-8-methoxy-4-oxoquinoline-3-carboxylic acid]
The melting point of the first is lower: 171 to 174 °C for the first, 201 to 202 °C for the second.

First: COc1c(N2C[C@H]3C(CF)C[C@@]3(N)C2)c(F)cc2c(=O)c(C(=O)O)cn([C@@H]3C[C@@H]3F)c12 (single isomer, unassigned) [Example 49]
Second: Cc1c(N2C[C@H]3C(CF)C[C@@]3(N)C2)c(F)cc2c(=O)c(C(=O)O)cn([C@@H]3C[C@@H]3F)c12 (single isomer, unassigned) [Example 51]
The melting point of the first is lower: 122 to 125 °C for the first, 130 to 133 °C for the second.

First: COc1c(N2C[C@H]3C(CF)C[C@@]3(N)C2)c(F)cc2c(=O)c(C(=O)O)cn([C@@H]3C[C@@H]3F)c12 (single isomer, unassigned) [Example 50]
Second: COc1c(N2C[C@H]3[C@H](F)CC[C@@]3(N)C2)c(F)cc2c(=O)c(C(=O)O)cn([C@@H]3C[C@@H]3F)c12 [Example 20, 7-{(1S,5R,6R)-1-Amino-6-fluoro-3-azabicyclo[3,3,0]octan-3-yl}-6-fluoro-1-[(1R,2S)-2-fluorocyclopropyl]-1,4-dihydro-8-methoxy-4-oxoquinoline-3-carboxylic acid]
The melting point of the first is higher: 193 to 195 °C for the first, 179 to 181 °C for the second.

First: COc1c(N2CC3(C)CCC3(N)C2)c(F)cc2c(=O)c(C(=O)O)cn([C@@H]3C[C@@H]3F)c12 (stereo in doubt) [Example 7, 7-[(1R,5S)-1-Amino-5-methyl-3-azabicyclo[3.2.0]hept-3-yl]-6-fluoro-1-[(1R,2S)-2-fluorocyclopropyl]-1,4-dihydro-8-methoxy-4-oxoquinoline-3-carboxylic acid]
Second: COc1c(N2CC3(Cl)CCC[C@@]3(N)C2)c(F)cc2c(=O)c(C(=O)O)cn([C@@H]3C[C@@H]3F)c12 (stereo in doubt) [Example 53, 7-[(1R,5R)-1-Amino-5-chloro-3-azabicyclo[3.3.0]octan-3-yl]-6-fluoro-1-[(1R,2S)-2-fluorocyclopropan-1-yl]-1,4-dihydro-8-methoxy-4-oxoquinoline-3-carboxylic acid]
The melting point of the first is lower: 123 to 125 °C for the first, 161 to 163 °C for the second.

Compared with `C[C@H]1C[C@@]2(N)CN(c3c(F)cc4c(=O)c(C(=O)O)cn5c4c3OC[C@@H]5C)C[C@@H]12` [Example 3, 10-{(1S,5R,6S)-1-Amino-6-methyl-3-azabicyclo[3.2.0]hept-3-yl}-9-fluoro-2,3-dihydro-3-(S)-methyl-7-oxo-7H-pyrido[1,2,3-de][1, 4]benzoxazine-6-carboxylic acid], `COc1c(N2C[C@H]3[C@@H](F)CC[C@@]3(N)C2)c(F)cc2c(=O)c(C(=O)O)cn([C@@H]3C[C@@H]3F)c12` [Example 21, 7-[(1S,5R,6S)-1-Amino-6-fluoro-3-azabicyclo[3,3,0]octan-3-yl]-6-fluoro-1-[(1R,2S)-2-fluorocyclopropyl]-1,4-dihydro-8-methoxy-4-oxoquinoline-3-carboxylic acid] is lower in melting point: 122 to 124 °C for the first, 117 to 119 °C for the second.

Compared with `COc1c(N2C[C@H]3C(F)(F)CC[C@@]3(N)C2)c(F)cc2c(=O)c(C(=O)O)cn([C@@H]3C[C@@H]3F)c12` [Example 22, 7-[(1S,5R)-1-Amino-6,6-difluoro-3-azabicyclo[3,3,0]octan-3-yl]-6-fluoro-1-[(1R,2S)-2-fluorocyclopropyl]-1,4-dihydro-8-methoxy-4-oxoquinoline-3-carboxylic acid], `Cc1c(N2C[C@H]3CCOC[C@@]3(N)C2)c(F)cc2c(=O)c(C(=O)O)cn([C@@H]3C[C@@H]3F)c12` [Example 41, 7-[(1S,6R)-1-Amino-3-oxa-8-azabicyclo[4,3,0]nonan-8-yl]-6-fluoro-1-[(1R,2S)-2-fluorocyclopropyl]-1,4-dihydro-8-methyl-4-oxoquinoline-3-carboxylic acid] is lower in melting point: 239 to 241 °C for the first, 158 to 160 °C for the second.

For `Cc1c(N2CC3(N)CCC4CC43C2)ccc2c(=O)c(C(=O)O)cn([C@@H]3C[C@@H]3F)c12` (single isomer, unassigned) [Example 55], the melting point was > 254 °C (dec.).
For `COc1c(N2C[C@]3(N)CC[C@]3(F)C2)c(F)cc2c(=O)c(C(=O)O)cn([C@@H]3C[C@@H]3F)c12` [Example 6, 7-[(1R,5S)-1-Amino-5-fluoro-3-azabicyclo[3.2.0]hept-3-yl]-6-fluoro-1-[(1R,2S)-2-fluorocyclopropyl]-1,4-dihydro-8-methoxy-4-oxoquinoline-3-carboxylic acid], the melting point was 235 °C (dec.).
For `C[C@H]1COc2c(N3C[C@]4(N)CCC[C@]4(F)C3)c(F)cc3c(=O)c(C(=O)O)cn1c23` [Example 13, 10-[(1R,5S)-1-Amino-5-fluoro-3-azabicyclo[3.3.0]octan-3-yl]-9-fluoro-2,3-dihydro-3-(S)-methyl-7-oxo-7H-pyrido[1,2,3-de][1,4]benzoxazine-6-carboxylic acid], the melting point was 285 to 293 °C (dec.).
With `N#Cc1c(N2C[C@]3(N)CCC[C@]3(F)C2)c(F)cc2c(=O)c(C(=O)O)cn([C@@H]3C[C@@H]3F)c12` [Example 14, 7-[(1R,5S)-1-Amino-5-fluoro-3-azabicyclo[3.3.0]octan-3-yl]-8-cyano-6-fluoro-1-[(1R,2S)-2-fluorocyclopropan-1-yl]-1,4-dihydro-4-oxoquinoline-3-carboxylic acid] the melting point was 268 to 280 °C (dec.).
With `C[C@H]1COc2c(N3C[C@@H]4CCOC[C@@]4(N)C3)c(F)cc3c(=O)c(C(=O)O)cn1c23` [Example 42, 10-[(1S,6S)-1-Amino-3-oxa-8-azabicyclo[4,3,0]nonan-8-yl]-9-fluoro-2,3-dihydro-3-methyl-(S)-7-oxo-7H-pyrido[1,2,3-de][1,4]benzoxazine-6-carboxylic acid] the melting point was > 300 °C.
With `Cc1c(N2C[C@]3(N)CC[C@]3(F)C2)c(F)cc2c(=O)c(C(=O)O)cn([C@@H]3C[C@@H]3F)c12` [Example 56, 7-{(1R,5S)-1-Amino-5-fluoro-3-azabicyclo[3.2.0]heptan-3-yl}-6-fluoro-1-[(1R,2S)-2-fluorocyclopropan-1-yl]-8-methyl-4-oxo-1,4-dihydroquinoline-3-carboxylic acid] the melting point was > 272 °C (dec.).
